Biological target: T1, IKKε (Homo sapiens, UniProt Q14164)
T1 construct: His-tag; made in house; host or cells: Sf9 insect cells
T1 sequence (Q14164 1-716): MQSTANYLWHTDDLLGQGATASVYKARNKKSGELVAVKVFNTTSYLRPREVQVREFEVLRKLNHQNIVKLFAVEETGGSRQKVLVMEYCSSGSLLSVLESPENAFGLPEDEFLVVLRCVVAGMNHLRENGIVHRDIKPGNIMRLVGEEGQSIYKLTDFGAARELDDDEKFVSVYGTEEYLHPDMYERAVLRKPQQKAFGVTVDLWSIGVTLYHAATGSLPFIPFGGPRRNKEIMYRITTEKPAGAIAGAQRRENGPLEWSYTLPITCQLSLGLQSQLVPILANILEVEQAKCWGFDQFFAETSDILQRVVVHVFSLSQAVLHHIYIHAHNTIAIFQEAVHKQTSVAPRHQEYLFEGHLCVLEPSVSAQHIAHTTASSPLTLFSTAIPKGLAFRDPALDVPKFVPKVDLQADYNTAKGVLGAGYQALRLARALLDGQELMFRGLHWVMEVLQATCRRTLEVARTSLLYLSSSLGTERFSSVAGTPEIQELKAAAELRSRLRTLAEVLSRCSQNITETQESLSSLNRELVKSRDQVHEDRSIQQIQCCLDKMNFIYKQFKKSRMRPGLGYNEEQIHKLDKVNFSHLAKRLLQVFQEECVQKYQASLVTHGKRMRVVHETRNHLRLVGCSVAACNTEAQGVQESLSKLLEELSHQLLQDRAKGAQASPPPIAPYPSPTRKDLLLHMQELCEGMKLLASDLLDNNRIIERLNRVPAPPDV
Assay: In-vitro IKKε kinase assay ([γ33]ATP filter-plate)
Assay type: biochemical
Settings: text bins; read-out: IC50 for inhibition of the kinase activity of IKKε
Experimental: IKKε enzyme was produced as a His-tag fusion in Sf9 cells and used at a final concentration of […]. TBK1 enzyme was produced as a His-tag fusion in Sf9 cells and used at a final concentration of 0.1 μg/ml. Kinase reactions were carried out in reaction buffer using myelin basic protein (Millipore, Ballerica, Mass.) or casein (Sigma, St. Louis, Mo.) as substrate at an ATP concentration equal to twice the Km,ATP value for each enzyme, corresponding to 32 μM ATP for IKKε and 60 μM ATP for TBK1, in the presence of 0.3 μCi [γ^33]ATP (PerkinElmer, Waltham, Mass.). Final enzyme concentrations were 0.1 or 0.015 μg/ml (IKKε) and 0.1 or 0.02 μg/ml (TBK1), representing “normal” and “sensitized” assay conditions respectively. Test compounds (or DMSO solvent as a control) were added prior to initiation of the reactions. Reactions were terminated after 30-45 minutes by adding 3% phosphoric acid. Terminated reactions were transferred to P-81 cellulose phosphate filterplates (Whatman, Inc., Piscataway, N.J.) and washed with 1% phosphoric acid on a vacuum apparatus. After air drying, scintillant (PerkinElmer, Waltham, Mass.) was added and the plates were read on a PerkinElmer TopCount NXT instrument. Counts were normalized to DMSO controls after background subtraction.

SMILES | IC50 [nM]
CC(=O)OC(C)C(=O)Nc1ccc(-c2ccnc(Nc3ccc(N4CCOCC4)cc3)n2)cc1C#N (stereo not drawn) [Example 147, 1-{[2-cyano-4-(2-{[4-(morpholin-4-yl)phenyl]amino}pyrimidin-4-yl)phenyl]amino}-1-oxopropan-2-yl acetate] | 50 to 500
N#Cc1cc(-c2ccnc(Nc3cccc(N4CCN(CCO)CC4)c3)n2)ccc1O[C@@H]1CCN(C(=O)CO)C1 [compound 604, 2-{[(3R)-1-(Hydroxyacetyl)pyrrolidin-3-yl]oxy}-5-[2-({3-[4-(2-hydroxyethyl)piperazin-1-yl]phenyl}amino)pyrimidin-4-yl]benzonitrile] | < 5
COc1ccc(-c2ccnc(Nc3ccc(NC(=O)NC4CCCC4)cc3)n2)cc1C#N [Example 8, 1-(4-{[4-(3-Cyano-4-methoxyphenyl)pyrimidin-2-yl]amino}phenyl)-3-cyclopentylurea] | 50 to 500
COC1CN(c2cccc(Nc3nccc(-c4ccc(O[C@@H]5CCN(C(=O)CO)C5)c(C#N)c4)n3)c2)C1 [compound 639] | < 5
N#Cc1cc(-c2ccnc(Nc3ccc(CN4CC(O)C4)cc3)n2)ccc1O[C@@H]1CCN(C(=O)CO)C1 [compound 615, 2-{[(3R)-1-(Hydroxyacetyl)pyrrolidin-3-yl]oxy}-5-[2-({4-[(3-hydroxyazetidin-1-yl)methyl]phenyl}amino)pyrimidin-4-yl]benzonitrile] | < 5
CC(C)C(=O)Nc1ccc(-c2ccnc(Nc3ccc(CCN4CCNCC4)cc3)n2)cc1C#N [compound 451, N-{2-cyano-4-[2-({4-[2-(piperazin-1-yl)ethyl]phenyl}amino)pyrimidin-4-yl]phenyl}-2-methylpropanamide] | 50 to 500
N#Cc1cc(-c2ccnc(Nc3ccc(CN4CCN(CCO)CC4)cc3)n2)ccc1O[C@@H]1CCN(C(=O)CO)C1 [compound 636, 2-{[(3R)-1-(Hydroxyacetyl)pyrrolidin-3-yl]oxy}-5-{2-[(4-{[4-(2-hydroxyethyl)piperazin-1-yl]methyl}phenyl)amino]pyrimidin-4-yl}benzonitrile] | < 5
N#Cc1cc(-c2ccnc(Nc3ccc(C#Cc4cccnc4)cc3)n2)ccc1OC1CCOCC1 [compound 605, 5-(2-{[4-(Pyridin-3-ylethynyl)phenyl]amino}pyrimidin-4-yl)-2-(tetrahydro-2H-pyran-4-yloxy)benzonitrile] | 5 to 50
N#Cc1cc(-c2ccnc(Nc3ccc(N4CCOCC4)cc3)n2)ccc1NC(=O)c1cccnc1 [Example 204, N-[2-cyano-4-(2-{[4-(morpholin-4-yl)phenyl]amino}pyrimidin-4-yl)phenyl]pyridine-3-carboxamide] | 50 to 500
C[C@H](O)C(=O)N1CC(Oc2ccc(-c3ccnc(Nc4ccc(N5CCOCC5)cc4)n3)cc2C#N)C1 [Example 249, 2-({1-[(2S)-2-hydroxypropanoyl]azetidin-3-yl}oxy)-5-(2-{[4-(morpholin-4-yl)phenyl]amino}pyrimidin-4-yl)benzonitrile] | 50 to 500
N#Cc1cc(-c2ccnc(Nc3ccc(N4CCOCC4)cc3)n2)ccc1OC1CN(C(=O)CO)C1 [Example 131, 2-{[1-(hydroxyacetyl)azetidin-3-yl]oxy}-5-(2-{[4-(morpholin-4-yl)phenyl]amino}pyrimidin-4-yl)benzonitrile] | 50 to 500
CC(C)NCCc1ccc(Nc2nccc(-c3ccc(NC(=O)C(C)C)c(C#N)c3)n2)cc1 [compound 462, N-{2-cyano-4-[2-({4-[2-(propan-2-ylamino)ethyl]phenyl}amino)pyrimidin-4-yl]phenyl}-2-methylpropanamide] | 5 to 50
COc1ccc(-c2ccnc(Nc3ccccc3)n2)cc1C#N [compound 299, 2-Methoxy-5-[2-(phenylamino)pyrimidin-4-yl]benzonitrile] | 5 to 50
COc1ccc(Nc2nccc(-c3ccc(OC(C)c4ccccc4)c(C#N)c3)n2)cc1OC (stereo not drawn) [Example 163] | 50 to 500
CC(Oc1ccc(-c2ccnc(Nc3ccc(N4CCOCC4)cc3)n2)cc1C#N)C(=O)O (stereo not drawn) [Example 265, 2-[2-Cyano-4-(2-{[4-(morpholin-4-yl)phenyl]amino}pyrimidin-4-yl)phenoxy]propanoic acid] | 50 to 500

— patent US20150352108A1, “AMINO-PYRIMIDINE COMPOUNDS AS INHIBITORS OF TBK1 AND/OR IKK EPSILON” (Alzheimer's Institute of America, priority 2009, published 2015)
